Measured values: PubChem BioAssay (NCI)
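Following 48 hours of exposure in 96-well plates, responses at five concentrations were used to interpolate endpoints linearly. At the TGI there is no net growth.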

Legend:
Assay in all cases: DTP human tumour cell line panel, 48 h
HCT-116 colon = system: HCT-116 colon
NCI-H522 lung = system: NCI-H522 lung
SNB-19 CNS = system: SNB-19 CNS
M14 melanoma = system: M14 melanoma
UACC-62 melanoma = system: UACC-62 melanoma
RXF 393 renal = system: RXF 393 renal
786-0 renal = system: 786-0 renal
OVCAR-3 ovarian = system: OVCAR-3 ovarian
HCC-2998 colon = system: HCC-2998 colon
IGROV1 ovarian = system: IGROV1 ovarian
LXFL 529 NSCLC = system: LXFL 529 NSCLC
KM12 colon = system: KM12 colon
ACHN renal = system: ACHN renal
U251 CNS = system: U251 CNS
A549 NSCLC = system: A549 NSCLC
M19-MEL melanoma = system: M19-MEL melanoma
KM20L2 colon = system: KM20L2 colon
MOLT-4 leukemia = system: MOLT-4 leukemia
LOX IMVI melanoma = system: LOX IMVI melanoma
OVCAR-8 ovarian = system: OVCAR-8 ovarian
RPMI-8226 leukemia = system: RPMI-8226 leukemia
K-562 leukemia = system: K-562 leukemia
TK-10 renal = system: TK-10 renal
A498 renal = system: A498 renal
SK-MEL-5 melanoma = system: SK-MEL-5 melanoma
SF-268 CNS = system: SF-268 CNS
SNB-75 CNS = system: SNB-75 CNS
SK-MEL-28 melanoma = system: SK-MEL-28 melanoma
EKVX NSCLC = system: EKVX NSCLC
SNB-78 CNS = system: SNB-78 CNS
NCI-H23 lung = system: NCI-H23 lung
DMS 114 small cell lung = system: DMS 114 small cell lung
SR leukemia = system: SR leukemia
SF-295 CNS = system: SF-295 CNS
SW-620 colon = system: SW-620 colon
HCT-15 colon = system: HCT-15 colon
SK-OV-3 ovarian = system: SK-OV-3 ovarian
DMS 273 small cell lung = system: DMS 273 small cell lung
CAKI-1 renal = system: CAKI-1 renal
HT29 colon = system: HT29 colon
SN12C renal = system: SN12C renal
CCRF-CEM leukemia = system: CCRF-CEM leukemia
SK-MEL-2 melanoma = system: SK-MEL-2 melanoma
HL-60(TB) leukemia = system: HL-60(TB) leukemia
OVCAR-4 ovarian = system: OVCAR-4 ovarian
SF-539 CNS = system: SF-539 CNS
NCI-H460 lung = system: NCI-H460 lung
MALME-3M melanoma = system: MALME-3M melanoma
UACC-257 melanoma = system: UACC-257 melanoma
UO-31 renal = system: UO-31 renal
HOP-62 NSCLC = system: HOP-62 NSCLC
COLO 205 colon = system: COLO 205 colon
T-47D breast = system: T-47D breast
NCI/ADR-RES ovarian = system: NCI/ADR-RES ovarian
DU-145 prostate = system: DU-145 prostate
HOP-92 NSCLC = system: HOP-92 NSCLC
MDA-N = system: MDA-N
BT-549 breast = system: BT-549 breast
MCF7 breast = system: MCF7 breast
NCI-H226 lung = system: NCI-H226 lung
OVCAR-5 ovarian = system: OVCAR-5 ovarian
MDA-MB-231 breast = system: MDA-MB-231 breast
HS 578T breast = system: HS 578T breast
PC-3 prostate = system: PC-3 prostate
MDA-MB-435 = system: MDA-MB-435

`CSCC(COC(C)=O)(CSC)c1ccncc1` was tested, and the TGI (HCT-116 colon) was greater than 100 µM, the TGI (NCI-H522 lung) was greater than 100 µM and the TGI (SNB-19 CNS) was greater than 100 µM. For the same compound, the TGI (M14 melanoma) was greater than 100 µM, the TGI (UACC-62 melanoma) was greater than 100 µM and the TGI (RXF 393 renal) was greater than 100 µM. The TGI (786-0 renal) was greater than 100 µM, the TGI (OVCAR-3 ovarian) was greater than 100 µM and the TGI (HCC-2998 colon) was greater than 100 µM. The TGI (IGROV1 ovarian) was greater than 100 µM, the TGI (LXFL 529 NSCLC) was greater than 100 µM and the TGI (KM12 colon) was greater than 100 µM. The TGI (ACHN renal) was greater than 100 µM, the TGI (U251 CNS) was greater than 100 µM and the TGI (A549 NSCLC) was greater than 100 µM. For the same compound, the TGI (M19-MEL melanoma) was greater than 100 µM, the TGI (KM20L2 colon) was greater than 100 µM and the TGI (MOLT-4 leukemia) was greater than 100 µM. For the same compound, the TGI (LOX IMVI melanoma) was greater than 100 µM, the TGI (OVCAR-8 ovarian) was greater than 100 µM and the TGI (RPMI-8226 leukemia) was greater than 100 µM. The TGI (K-562 leukemia) was greater than 100 µM, the TGI (TK-10 renal) was greater than 100 µM and the TGI (A498 renal) was greater than 100 µM. The TGI (SK-MEL-5 melanoma) was greater than 100 µM, the TGI (SF-268 CNS) was greater than 100 µM and the TGI (SNB-75 CNS) was greater than 100 µM. The TGI (SK-MEL-28 melanoma) was greater than 100 µM, the TGI (EKVX NSCLC) was greater than 100 µM and the TGI (SNB-78 CNS) was greater than 100 µM. The TGI (NCI-H23 lung) was greater than 100 µM, the TGI (DMS 114 small cell lung) was greater than 100 µM and the TGI (SR leukemia) was greater than 100 µM. It also gave a TGI (SF-295 CNS) greater than 100 µM, a TGI (SW-620 colon) greater than 100 µM and a TGI (HCT-15 colon) greater than 100 µM. It also gave a TGI (SK-OV-3 ovarian) greater than 100 µM, a TGI (DMS 273 small cell lung) greater than 100 µM and a TGI (CAKI-1 renal) greater than 100 µM. For the same compound, the TGI (HT29 colon) was greater than 100 µM, the TGI (SN12C renal) was greater than 100 µM and the TGI (CCRF-CEM leukemia) was greater than 100 µM. It also gave a TGI (SK-MEL-2 melanoma) greater than 100 µM, a TGI (HL-60(TB) leukemia) greater than 100 µM and a TGI (OVCAR-4 ovarian) greater than 100 µM. For the same compound, the TGI (SF-539 CNS) was greater than 100 µM, the TGI (NCI-H460 lung) was greater than 100 µM and the TGI (MALME-3M melanoma) was greater than 100 µM. It also gave a TGI (UACC-257 melanoma) greater than 100 µM, a TGI (UO-31 renal) greater than 100 µM and a TGI (HOP-62 NSCLC) greater than 100 µM. The TGI (COLO 205 colon) was greater than 100 µM.

With `CN(C)CCCN=c1c2ccccc2n(C)c2[nH]c(=O)n(C)c(=O)c12` the TGI (T-47D breast) was greater than 54.7 µM, the TGI (HCT-116 colon) was greater than 41.8 µM and the TGI (NCI/ADR-RES ovarian) was greater than 100 µM. For the same compound, the TGI (NCI-H522 lung) was 9.34 µM, the TGI (SNB-19 CNS) was greater than 64.4 µM and the TGI (M14 melanoma) was 17.1 µM. It also gave a TGI (UACC-62 melanoma) of 24.7 µM, a TGI (RXF 393 renal) of 30.1 µM and a TGI (786-0 renal) greater than 64.8 µM. The TGI (DU-145 prostate) was greater than 79 µM, the TGI (IGROV1 ovarian) was greater than 100 µM and the TGI (KM12 colon) was 42.4 µM. For the same compound, the TGI (ACHN renal) was 98.3 µM, the TGI (U251 CNS) was 15 µM and the TGI (HOP-92 NSCLC) was greater than 84.7 µM. It also gave a TGI (A549 NSCLC) greater than 100 µM, a TGI (MDA-N) of 16.2 µM and a TGI (MOLT-4 leukemia) of 12.1 µM. For the same compound, the TGI (LOX IMVI melanoma) was 39.1 µM, the TGI (OVCAR-8 ovarian) was greater than 100 µM and the TGI (RPMI-8226 leukemia) was greater than 54.4 µM. The TGI (BT-549 breast) was 36.8 µM, the TGI (K-562 leukemia) was greater than 52 µM and the TGI (TK-10 renal) was 25.7 µM. The TGI (MCF7 breast) was 26.6 µM, the TGI (A498 renal) was 38 µM and the TGI (SK-MEL-5 melanoma) was 18.4 µM. It also gave a TGI (NCI-H226 lung) of 18.4 µM, a TGI (SF-268 CNS) greater than 46.6 µM and a TGI (SNB-75 CNS) of 21.5 µM. For the same compound, the TGI (SK-MEL-28 melanoma) was 26.8 µM, the TGI (OVCAR-5 ovarian) was 43.7 µM and the TGI (EKVX NSCLC) was 28.9 µM. It also gave a TGI (NCI-H23 lung) of 21.7 µM, a TGI (MDA-MB-231 breast) of 28 µM and a TGI (SR leukemia) of 9.3 µM. It also gave a TGI (SF-295 CNS) of 32.5 µM, a TGI (SW-620 colon) of 28.1 µM and a TGI (HCT-15 colon) greater than 100 µM. The TGI (SK-OV-3 ovarian) was 50.3 µM, the TGI (HS 578T breast) was 52.6 µM and the TGI (CAKI-1 renal) was greater than 100 µM. The TGI (HT29 colon) was 39.2 µM, the TGI (SN12C renal) was greater than 51.6 µM and the TGI (CCRF-CEM leukemia) was 16.8 µM. For the same compound, the TGI (SK-MEL-2 melanoma) was 9.96 µM, the TGI (PC-3 prostate) was 22.4 µM and the TGI (HL-60(TB) leukemia) was 6.47 µM. The TGI (OVCAR-4 ovarian) was 36.2 µM, the TGI (SF-539 CNS) was 22.4 µM and the TGI (NCI-H460 lung) was 11.5 µM. The TGI (MALME-3M melanoma) was 11 µM, the TGI (UACC-257 melanoma) was 13.8 µM and the TGI (MDA-MB-435) was 16.8 µM. For the same compound, the TGI (UO-31 renal) was 27.2 µM, the TGI (HOP-62 NSCLC) was 29.9 µM and the TGI (COLO 205 colon) was 11.9 µM.
